# Values quoted from earlier work, collected in patent US20230189810A1, “AQUEOUS COMPOSITION OF DITHI[…]” (priority 2020, published 2023).
# Conditions: water, 20° C.
substance,measurement,value
mancozeb,solubility,about 6.2 mg per liter
